Measured values from patent US10004222B2, “Small molecule ice recrystallization inhibitors and methods of use thereof” (THE UNIVERSITY OF OTTAWA, priority 2012, dated 2018).

How the values were obtained:
HepG2 cells = experiment: human liver cell viability, MTT assay; format: cell-based; conditions: at the concentration that yielded the highest functionality; overnight at 37° C.
Description: In the assay, HepG2 cells (human hepatocellular carcinoma cells) were harvested and incubated at 37° C. overnight in a 96-well plate to a concentration of 20,000 cells per well using Minimum Essential Medium (MEM) as media. The following day (or once cells were confluent) the media was removed and cells were incubated at 37° C. overnight with MEM supplemented with desired concentration of PMP-Glc and NOGlc (100 μL of solution added). The following day the plates were centrifuged (700 RPM for 3 minutes) and the solutions were removed. 200 μL of MEM was added to each well, followed by 50 μL of 2.5 mg/mL MTT solution in Hank's Balanced Salt Solution (HBSS) to a final concentration of 0.5 mg/mL MTT per well. Then the plates were incubated for 3 hours at 37° C. After incubation, the plates were centrifuged (700 RPM for 3 minutes) and 200 μL of a 10% TritonX/0.1 N HCl in isopropanol solution was added to each well. The plates were incubated in the dark for 1 hour, then shaken and the absorbance at […] of each well was read. % viability at 37° C. of PMP-Glc at a concentration 11 mM, 22 mM, 44 mM, 110 mM and 220 mM PMP-Glc was measured, and the results are shown in FIG. 12. % viability at 37° C. of NOGlc at a concentration of 0.1 mM, 0.2 mM, 0.5 mM, 1 mM, 2 mM and 5 mM was measured. Also, % viability at 37° C. of PMP-Glc, pFPh-Glc and pBrPh-Glc at a concentration of 11 mM, 22 mM, 44 mM, 55 mM, 110 mM and 220 mM was measured under the same conditions for the MTT Assay described above.
Human liver cell viability in compound (3a), (4a), […], and (1b) was assessed using a 3-(4,5-dimethylthiazol-2-yl)-2,5-diphenyltetrazolium bromide (MTT) Assay. In the assay, HepG2 cells (human hepatocellular carcinoma cells) were harvested and incubated overnight at 37° C. in a 96-well plate to a concentration of 20,000 cells per well using Minimum Essential Medium (MEM) as media. The following day, the media was removed and cells were incubated at 37° C. overnight with 100 μL MEM supplemented with different concentrations of (3a), (2a), (4a), and (1b). The following day, the plates were centrifuged at 1000 rpm for 5 minutes and solutions removed by aspiration. 200 μL of MEM was added to each well, followed by 50 μL of 2.5 mg/mL MTT (dissolved in HBSS). The plates were then incubated at 37° C. for 4 hours. After incubation, the plates were centrifuged at 1000 rpm for 5 minutes and solution was aspirated. […] The plates were incubated at ambient temperature for 3 hours before being shaken and the absorbance at 570 nm of each well was read. % viability at 37° C. of (3a) at 11 mM, 22 mM, 44 mM, 55 mM and 110 mM was measured and the results are shown in FIG. 37. […] Nonetheless, the cytotoxicity of DMSO itself was not determined.

[1] = splat cooling ice recrystallization inhibition (IRI) assay; conditions: for decrease in grain size: mean grain size vs PBS alone, 30 min at −6.4° C., FIG. 28
Description: In this assay, the area of ice crystals are measured after a 30 minute annealing time at −6.4° C. and compared to a positive control for ice recrystallization resulting in a quantitative measurement of the mean ice grain size. For a positive control, a phosphate buffered saline (PBS) solution was utilized. All samples were normalized to the PBS positive control. The ice recrystallization inhibition activity of the carbohydrate-based non-ionic surfactants n-octyl-β-D-glucopyranoside (compound 3) and n-octyl-β-D-galactopyranoside (compound 4) is shown in FIG. 1.
In this assay, the area of ice crystals are measured after a 30 minute annealing time at −6.4° C. and compared to a positive control for ice recrystallization resulting in a quantitative measurement of the mean ice grain size. For a positive control, a PBS solution was utilized. All samples were normalized to the PBS positive control.
N-aryl-D-gluconamides (3a), (2a), (4a), and (1b) are a class of low molecular weight carbohydrate-based compounds. The ice recrystallization inhibition activity of (3a), (2a), (4a), and (1b) was assessed using a “splat cooling” assay. In this assay, the area of ice crystals are measured after a 30 minutes annealing time at −6.4° C. and compared to a positive control for ice recrystallization resulting in a quantitative measurement of the mean ice grain size. For a positive control, PBS was utilized. All samples were normalized to the PBS positive control.

[2] = system: CD34+ cells (hematopoietic stem cells); experiment: colony forming unit (CFU) assay after cryopreservation of umbilical cord blood; format: cell-based, human; conditions: 27.5 mM IRI, 10% DMSO; post-thaw, 14 days in Methocult
Tf1-α cells = experiment: cryopreservation of Tf1-α cells, viability/apoptosis by flow cytometry (7-AAD, Annexin V); format: cell-based; conditions: 55 mM aryl-aldonamide, post-thaw
Description: Tf1-α cells were cultured to a final concentration of 2-3×10^6 cells/mL. Three million cells were transferred into cryovials and media were removed by aspiration after centrifugation at 1000 rpm for five minutes. 100 μL of RPMI media (10% FBS) supplemented with the cryopreservative of interest was added to the cryovial and vortexed. The cryovials were cooled at a rate of −1° C./min for 24 hours to −80° C. before being transferred to a liquid nitrogen dewar for storage until analysis.
Cryovials were thawed under fast thaw conditions (submerged in 37° C. water bath). The cells were then diluted to a concentration of 3×10^6 cells/mL with 1× Annexin V Binding Buffer and a cell count was obtained by hemacytometer (to obtain cell recovery). A 400 μL aliquot was transferred to a flow cytommetry tube. 10 μL of each Annexin V FITC (for apoptosis) and 7-AAD (for viability) dyes were added, the tube was vortexed and allowed to incubate in the dark for 15 minutes. The solution was diluted to 1 mL with 1× Annexin V Binding Buffer, vortexed and analyzed by flow cytommetry. […] With 2% DMSO, cell viability reached about 45%, and with 10% DMSO, cell viability reached around 78%.

Row | SMILES | cytotoxicity (HepG2 cells) | ice recrystallization inhibition activity ([1]; concentration not given) | decrease in grain size [1] | BFU-E [2] | CFU-M [2] | Apoptosis (%) (Tf1-α cells; 0% DMSO) | Cell Viability (%) (Tf1-α cells; 0% DMSO) | Apoptosis (%) (Tf1-α cells; 2% DMSO) | Cell Viability (%) (Tf1-α cells; 2% DMSO) | Apoptosis (%) (Tf1-α cells; 10% DMSO) | Cell Viability (%) (Tf1-α cells; 10% DMSO)
1 | O=C(NCc1c(F)cccc1F)[C@H](O)[C@@H](O)[C@H](O)[C@H](O)CO [(1b), N-(2,6-difluorobenzyl)-D-gluconamide] | minimally cytotoxic relative to DMSO alone | higher IRI activity than compound (2b) | about 85% | 28.5 | 2.0 | – | – | – | – | – | –
2 | O=C(Nc1ccccc1F)[C@H](O)[C@@H](O)[C@H](O)[C@H](O)CO [(2a), N-(2-fluorophenyl)-D-gluconamide] | minimally cytotoxic relative to DMSO alone | – | ~95% | – | – | 0 | 1.27 | 1.5 | 81.28 | 3.37 | 92.83
3 | COc1ccc(NC(=O)[C@H](O)[C@@H](O)[C@H](O)[C@H](O)CO)cc1 [(3a), N-(4-methoxyphenyl)-D-gluconamide] | minimally cytotoxic relative to DMSO alone | – | ~95% | 35.0 | 3.5 | 0 | 0.16 | 1.38 | 74.33 | 2.73 | 95.33
4 | O=C(Nc1ccc(Cl)cc1)[C@H](O)[C@@H](O)[C@H](O)[C@H](O)CO [(4a), N-(4-chlorophenyl)-D-gluconamide] | minimally cytotoxic relative to DMSO alone | – | ~60% | – | – | – | – | – | – | – | –
